According to patent US12516058B2, “Small-molecule compounds for controlling endosomal toll-like receptors and therapeutic agent for autoimmune diseases using same” (priority 2020, dated 2026):
Entries after “also recorded” stand apart in the source; their conditions may differ.

What was measured:
TLR9 = biological target: T1, TLR9 (Mus musculus, UniProt Q9EQU3); test: TNF-α secretion ELISA after TLR9 agonist ODN2395 in RAW 264.7 cells; format: cell-based; conditions: SK21 to SK82 at 0.5 μM or 2 μM, ODN2395 0.5 μM
T1 construct: endogenous in cells; host or cells: RAW 264.7
T1 sequence (Q9EQU3 26-1032): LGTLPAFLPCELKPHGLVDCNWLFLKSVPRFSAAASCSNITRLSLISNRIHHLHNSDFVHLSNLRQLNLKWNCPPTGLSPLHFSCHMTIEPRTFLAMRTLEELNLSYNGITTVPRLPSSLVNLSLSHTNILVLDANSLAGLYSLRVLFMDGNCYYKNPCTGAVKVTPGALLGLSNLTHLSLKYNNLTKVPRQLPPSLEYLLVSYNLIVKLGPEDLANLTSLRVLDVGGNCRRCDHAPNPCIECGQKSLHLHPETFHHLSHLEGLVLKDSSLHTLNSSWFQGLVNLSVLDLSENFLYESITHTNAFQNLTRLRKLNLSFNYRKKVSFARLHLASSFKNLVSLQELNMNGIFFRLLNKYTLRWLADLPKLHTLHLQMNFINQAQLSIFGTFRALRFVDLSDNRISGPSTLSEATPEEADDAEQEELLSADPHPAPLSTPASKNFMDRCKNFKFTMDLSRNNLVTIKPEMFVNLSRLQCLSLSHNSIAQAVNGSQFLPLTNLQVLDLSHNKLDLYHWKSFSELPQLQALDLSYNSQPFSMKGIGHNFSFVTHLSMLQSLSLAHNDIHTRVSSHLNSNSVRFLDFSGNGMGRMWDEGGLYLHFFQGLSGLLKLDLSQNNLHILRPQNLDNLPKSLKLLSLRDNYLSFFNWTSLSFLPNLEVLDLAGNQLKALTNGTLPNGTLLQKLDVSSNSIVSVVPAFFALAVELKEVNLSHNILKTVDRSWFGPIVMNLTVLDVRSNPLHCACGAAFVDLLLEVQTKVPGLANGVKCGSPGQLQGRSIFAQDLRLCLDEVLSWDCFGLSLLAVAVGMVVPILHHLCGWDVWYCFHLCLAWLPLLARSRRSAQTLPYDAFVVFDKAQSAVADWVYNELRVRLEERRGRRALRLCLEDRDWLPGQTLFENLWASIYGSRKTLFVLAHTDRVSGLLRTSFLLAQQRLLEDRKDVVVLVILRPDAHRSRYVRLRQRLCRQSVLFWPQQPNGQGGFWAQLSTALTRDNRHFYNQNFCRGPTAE
Procedure: (§1) In order to determine the inhibitory activities of the test-ligand, RAW 264.7 cells were pretreated with each candidate compound for 1 hour, then treated with Pam3CSK4 (synthetic triacyl lipopeptide; TLR1/2, Invitrogen), FSL-1 (synthetic diacyl lipoprotein, TLR2/6, 100 ng/ml), lipopolysaccharide (LPS, TLR4, Sigma Aldrich), imiquimod (IMQ, TLR7, Invitrogen), and ODN2395 (type C CpG repeat motif DNA oligo(5′-[…]-3), TLR9, Bioneer) ligand for 4 hours, and treated with poly I:C (I:C repeat motif double-stranded RNA, TLR3, Invitrogen) and TL8-506 (TLR8, Invitrogen) showing delayed reactivity for 24 hours. After activation of TLR, the supernatant was diluted in an appropriate ratio so as to measure within the standard dose range, transferred to a pre-coated 96-well assay plate, and then treated with mouse TNF-alpha secretion level in accordance with the manufacturer's instructions using a mouse-TNF-alpha ELISA-kit (Invitrogen).
(§2) In order to plot the concentration-dependent LC50 curves, treatment with the SK series ligands at different concentrations up to 200 μM (the highest concentration that could be treated within the level of 0.5% DMSO) was performed. Then, cell viability and toxicity response upon treatment with ligands were analyzed by MTT as described in Examples 1-3. Cell viability in each plot was normalized from negative control (100%; no treatment) to positive control (highest concentration of test-ligand), and LC50 was determined by non-linear regression (Graph Pad Prism 7.0). In order to plot the concentration-dependent IC50 curves, pre-treatment with the SK series ligands was performed at different concentrations up to 50 μM (twice the initial concentration). Cell responses mediated by TLR7 and TLR9 (levels of TNF-α secretion) were analyzed by ELISA as described in Examples 1-4. The cytokine level in each plot was normalized from negative control (non-treated) to positive control (treatment with ligand), and IC50 was determined by non-linear regression (Graph Pad Prism 7.0).
(§3) In order to select potential inhibitory molecules against TLR3/TLR7/TLR8/TLR9 activation, first, MTT (3-(4,5-dimethylthiazol-2-yl)-2,5-diphenyltetrazolium bromide) cell viability assay (FIG. 7) was performed upon treatment with a set of ligands from SK21 to SK82 at a concentration of 20 μM and the inhibitory activity thereof was evaluated by an ELISA assay to monitor the level of TNF-α secretion in RAW 264.7 cells. The experimental ligands from SK21 to SK82 were administered at 0.5 μM or 2 μM to the RAW 264.7 cells and stimulated with Imiquimod (TLR7, 1 μg/ml) and OND2395 (TLR9, 0.5 μM).

TLR7 = biological target: T2, TLR7 (Mus musculus, UniProt P58681); test: TNF-α secretion ELISA after TLR7 agonist imiquimod (IMQ) in RAW 264.7 cells; format: cell-based; conditions: SK21 to SK82 at 0.5 μM or 2 μM, Imiquimod 1 μg/ml
T2 construct: endogenous in cells; host or cells: RAW 264.7
T2 sequence (P58681 27-1050): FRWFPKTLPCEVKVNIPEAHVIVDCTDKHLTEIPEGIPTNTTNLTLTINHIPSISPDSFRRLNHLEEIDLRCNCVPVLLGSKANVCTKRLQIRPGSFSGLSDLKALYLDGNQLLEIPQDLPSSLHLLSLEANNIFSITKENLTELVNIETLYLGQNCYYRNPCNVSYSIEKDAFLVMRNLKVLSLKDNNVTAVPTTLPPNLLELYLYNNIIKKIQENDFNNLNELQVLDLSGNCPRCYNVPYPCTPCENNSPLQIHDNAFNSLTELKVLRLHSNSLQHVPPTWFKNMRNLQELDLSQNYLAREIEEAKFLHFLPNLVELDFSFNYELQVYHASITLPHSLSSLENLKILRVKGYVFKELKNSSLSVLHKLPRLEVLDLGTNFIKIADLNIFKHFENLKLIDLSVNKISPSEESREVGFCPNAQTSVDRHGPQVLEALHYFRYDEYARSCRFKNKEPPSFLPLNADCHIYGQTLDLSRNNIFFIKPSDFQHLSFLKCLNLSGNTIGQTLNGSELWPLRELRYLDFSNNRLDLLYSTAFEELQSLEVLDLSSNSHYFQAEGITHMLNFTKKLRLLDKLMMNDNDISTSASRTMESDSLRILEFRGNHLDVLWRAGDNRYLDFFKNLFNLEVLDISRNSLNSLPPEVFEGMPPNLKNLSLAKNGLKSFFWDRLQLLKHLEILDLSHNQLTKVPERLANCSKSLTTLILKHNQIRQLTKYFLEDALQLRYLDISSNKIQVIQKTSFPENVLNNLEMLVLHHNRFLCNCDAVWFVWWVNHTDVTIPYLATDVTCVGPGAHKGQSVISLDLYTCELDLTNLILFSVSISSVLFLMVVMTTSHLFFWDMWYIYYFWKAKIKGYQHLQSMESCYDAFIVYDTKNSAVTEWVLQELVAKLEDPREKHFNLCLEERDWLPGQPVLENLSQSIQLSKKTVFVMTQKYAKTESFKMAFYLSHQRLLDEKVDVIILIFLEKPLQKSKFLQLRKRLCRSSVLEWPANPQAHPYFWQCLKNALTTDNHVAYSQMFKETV
Procedure: as §1, §2, §3

SMILES | inhibitory activity against TLR9 (level of TNF-α secretion) (TLR9) | inhibitory activity against TLR7 (level of TNF-α secretion) (TLR7)
Cc1c(C)n(CCCN(C)Cc2ccccc2)c2nc3c(c(N)c12)CCCCC3 [SK23, 1-(3-(benzyl(methyl)amino)propyl)-2,3-dimethyl-1,5,6,7,8,9-hexahydrocyclohepta[b]pyrrolo[3,2-e]pyridin-4-amine] | significant inhibitory activity; also recorded: significantly reduced | significant inhibitory activity; also recorded: significantly reduced
CNCCCn1c(C)c(C)c2c(N)c3c(nc21)CCCCC3 [SK24, 2,3-dimethyl-1-(3-(methylamino)propyl)-1,5,6,7,8,9-hexahydrocyclohepta[b]pyrrolo[3,2-e]pyridin-4-amine] | significant inhibitory activity; also recorded: significantly reduced | significant inhibitory activity; also recorded: significantly reduced
Cc1cc2c(N)c3c(nc2n1CCCN(C)C)CCCCC3 [SK29, 1-(3-(dimethylamino)propyl)-2-methyl-1,5,6,7,8,9-hexahydrocyclohepta[b]pyrrolo[3,2-e]pyridin-4-amine] | significant inhibitory activity; also recorded: significantly reduced | significant inhibitory activity; also recorded: significantly reduced
Cc1c(C)n(CCCN(C)C)c2nc3c(c(N)c12)CCCC3 [SK36, 1-(3-(dimethylamino)propyl)-2,3-dimethyl-5,6,7,8-tetrahydro-1H-pyrrolo[2,3-b]quinolin-4-amine] | significant inhibitory activity; also recorded: significantly reduced | significant inhibitory activity; also recorded: significantly reduced
Cc1cc2c(N)c3c(nc2n1CCCN(C)C)CCCC3 [SK39, 1-(3-(dimethylamino)propyl)-2-methyl-5,6,7,8-tetrahydro-1H-pyrrolo[2,3-b]quinolin-4-amine] | significant inhibitory activity; also recorded: significantly reduced | significant inhibitory activity; also recorded: significantly reduced
CCc1nc2c(cc(C)n2CCCN(C)C)c(N)c1C [SK40, 1-(3-(dimethylamino)propyl)-6-ethyl-2,5-dimethyl-1H-pyrrolo[2,3-b]pyridin-4-amine] | significant inhibitory activity; also recorded: significantly reduced | significant inhibitory activity; also recorded: significantly reduced
CN(C)CCCn1c2ccccc2c2c(N)c3c(nc21)CCCC3 [SK52, 6-(3-(dimethylamino)propyl)-2,3,4,6-tetrahydro-1H-indolo[2,3-b]quinolin-11-amine] | significant inhibitory activity; also recorded: significantly reduced | significant inhibitory activity; also recorded: significantly reduced
CNCCCn1c2ccc(OC)cc2c2c(N)c3c(nc21)CCCC3 [SK54, 9-methoxy-6-(3-(methylamino)propyl)-2,3,4,6-tetrahydro-1H-indolo[2,3-b]quinolin-11-amine] | significant inhibitory activity; also recorded: significantly reduced | significant inhibitory activity; also recorded: significantly reduced
CNCCCn1c2ccccc2c2c(N)c3c(nc21)CCCC3 [SK55, 6-(3-(methylamino)propyl)-2,3,4,6-tetrahydro-1H-indolo[2,3-b]quinolin-11-amine] | significant inhibitory activity; also recorded: significantly reduced | significant inhibitory activity; also recorded: significantly reduced
CN(C)CCCn1c2ccc(F)cc2c2c(N)c3c(nc21)CCCC3 [SK59, 6-(3-(dimethylamino)propyl)-9-fluoro-2,3,4,6-tetrahydro-1H-indolo[2,3-b]quinolin-11-amine] | significant inhibitory activity; also recorded: significantly reduced | significant inhibitory activity; also recorded: significantly reduced
CN(C)CCCn1c2ccc(Cl)cc2c2c(N)c3c(nc21)CCCC3 [SK60, 9-chloro-6-(3-(dimethylamino)propyl)-2,3,4,6-tetrahydro-1H-indolo[2,3-b]quinolin-11-amine] | significant inhibitory activity; also recorded: significantly reduced | significant inhibitory activity; also recorded: significantly reduced
CN(C)CCCn1c2ccc(OC(F)(F)F)cc2c2c(N)c3c(nc21)CCCC3 [SK61, 6-(3-(dimethylamino)propyl)-9-(trifluoromethoxy)-2,3,4,6-tetrahydro-1H-indolo[2,3-b]quinolin-11-amine] | significant inhibitory activity; also recorded: significantly reduced | significant inhibitory activity; also recorded: significantly reduced
